{"source": "the supplement of paper PMC10307832", "assay_in_all_cases": "relative viability (nuclei count vs DMSO), 5 days (fraction); higher = more cells survive", "key": {"ChaGo-K-1": {"test_system": "ChaGo-K-1", "outline": "(§1)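 Lung cancer cell lines in 1536-well plates got either a single drug or a fixed anchor-drug dose together with five library-drug doses (not always all listed) in √10 steps, by pin tool, on the day after seeding. Nuclei were counted after 5 days, and relative viability is the treated-to-vehicle ratio of nuclei counts. Values are medians of duplicate plates.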"}, "A-427": {"test_system": "A-427", "outline": "as §1"}, "CAL-12T": {"test_system": "CAL-12T", "outline": "as §1"}, "NCI-H2009": {"test_system": "NCI-H2009", "outline": "as §1"}, "NCI-H1395": {"test_system": "NCI-H1395", "outline": "as §1"}, "SK-MES-1": {"test_system": "SK-MES-1", "outline": "as §1"}, "LCLC-103H": {"test_system": "LCLC-103H", "outline": "as §1"}, "NCI-H441": {"test_system": "NCI-H441", "outline": "as §1"}, "LU99A": {"test_system": "LU99A", "outline": "as §1"}, "EPLC-272H": {"test_system": "EPLC-272H", "outline": "as §1"}, "NCI-H1975": {"test_system": "NCI-H1975", "outline": "as §1"}, "NCI-H727": {"test_system": "NCI-H727", "outline": "as §1"}, "NCI-H1793": {"test_system": "NCI-H1793", "outline": "as §1"}, "NCI-H460": {"test_system": "NCI-H460", "outline": "as §1"}, "NCI-H650": {"test_system": "NCI-H650", "outline": "as §1"}, "BEN": {"test_system": "BEN", "outline": "as §1"}, "LXF-289": {"test_system": "LXF-289", "outline": "as §1"}, "NCI-H2342": {"test_system": "NCI-H2342", "outline": "as §1"}, "COR-L 105": {"test_system": "COR-L 105", "outline": "as §1"}, "NCI-H2347": {"test_system": "NCI-H2347", "outline": "as §1"}, "NCI-H358": {"test_system": "NCI-H358", "outline": "as §1"}, "NCI-H1650": {"test_system": "NCI-H1650", "outline": "as §1"}, "HOP-62": {"test_system": "HOP-62", "outline": "as §1"}, "NCI-H1993": {"test_system": "NCI-H1993", "outline": "as §1"}, "NCI-H1666": {"test_system": "NCI-H1666", "outline": "as §1"}}}
{"smiles": "Nc1cccc2c1CN(C1CCC(=O)NC1=O)C2=O", "note": "(stereo unspecified) [Lenalidomide] + COc1cccc2cc(-c3nc([C@H]4CC[C@H](C(=O)O)CC4)n4ncnc(N)c34)[nH]c12 [OSI-027] (partner 0.5 µM)", "values": [{"measurement": "relative viability", "setting": "ChaGo-K-1; first compound 0.253 µM", "result": 0.586}, {"measurement": "relative viability", "setting": "ChaGo-K-1; first compound 0.8 µM", "result": 0.441}, {"measurement": "relative viability", "setting": "ChaGo-K-1; first compound 2.53 µM", "result": 0.656}, {"measurement": "relative viability", "setting": "ChaGo-K-1; first compound 8 µM", "result": 0.548}, {"measurement": "relative viability", "setting": "A-427; first compound 0.253 µM", "result": 0.48}, {"measurement": "relative viability", "setting": "A-427; first compound 0.8 µM", "result": 0.387}, {"measurement": "relative viability", "setting": "A-427; first compound 2.53 µM", "result": 0.473}, {"measurement": "relative viability", "setting": "A-427; first compound 8 µM", "result": 0.514}, {"measurement": "relative viability", "setting": "CAL-12T; first compound 0.253 µM", "result": 0.599}, {"measurement": "relative viability", "setting": "CAL-12T; first compound 0.8 µM", "result": 0.555}, {"measurement": "relative viability", "setting": "CAL-12T; first compound 2.53 µM", "result": 1.01}, {"measurement": "relative viability", "setting": "CAL-12T; first compound 8 µM", "result": 0.619}, {"measurement": "relative viability", "setting": "NCI-H2009; first compound 0.253 µM", "result": 0.627}, {"measurement": "relative viability", "setting": "NCI-H2009; first compound 0.8 µM", "result": 0.64}, {"measurement": "relative viability", "setting": "NCI-H2009; first compound 2.53 µM", "result": 0.779}, {"measurement": "relative viability", "setting": "NCI-H2009; first compound 8 µM", "result": 0.759}, {"measurement": "relative viability", "setting": "NCI-H1395; first compound 0.253 µM", "result": 0.74}, {"measurement": "relative viability", "setting": "NCI-H1395; first compound 0.8 µM", "result": 0.501}, {"measurement": "relative viability", "setting": "NCI-H1395; first compound 2.53 µM", "result": 0.633}, {"measurement": "relative viability", "setting": "NCI-H1395; first compound 8 µM", "result": 0.601}, {"measurement": "relative viability", "setting": "SK-MES-1; first compound 0.253 µM", "result": 0.573}, {"measurement": "relative viability", "setting": "SK-MES-1; first compound 0.8 µM", "result": 0.703}, {"measurement": "relative viability", "setting": "SK-MES-1; first compound 2.53 µM", "result": 0.63}, {"measurement": "relative viability", "setting": "SK-MES-1; first compound 8 µM", "result": 0.613}, {"measurement": "relative viability", "setting": "LCLC-103H; first compound 0.253 µM", "result": 0.433}, {"measurement": "relative viability", "setting": "LCLC-103H; first compound 0.8 µM", "result": 0.433}, {"measurement": "relative viability", "setting": "LCLC-103H; first compound 2.53 µM", "result": 0.512}, {"measurement": "relative viability", "setting": "LCLC-103H; first compound 8 µM", "result": 0.473}, {"measurement": "relative viability", "setting": "NCI-H441; first compound 0.253 µM", "result": 0.485}, {"measurement": "relative viability", "setting": "NCI-H441; first compound 0.8 µM", "result": 0.666}, {"measurement": "relative viability", "setting": "NCI-H441; first compound 2.53 µM", "result": 0.876}, {"measurement": "relative viability", "setting": "NCI-H441; first compound 8 µM", "result": 0.631}, {"measurement": "relative viability", "setting": "LU99A; first compound 0.253 µM", "result": 0.31}, {"measurement": "relative viability", "setting": "LU99A; first compound 0.8 µM", "result": 0.324}, {"measurement": "relative viability", "setting": "LU99A; first compound 2.53 µM", "result": 0.292}, {"measurement": "relative viability", "setting": "LU99A; first compound 8 µM", "result": 0.285}, {"measurement": "relative viability", "setting": "EPLC-272H; first compound 0.253 µM", "result": 0.297}, {"measurement": "relative viability", "setting": "EPLC-272H; first compound 0.8 µM", "result": 0.339}, {"measurement": "relative viability", "setting": "EPLC-272H; first compound 2.53 µM", "result": 0.292}, {"measurement": "relative viability", "setting": "EPLC-272H; first compound 8 µM", "result": 0.283}, {"measurement": "relative viability", "setting": "NCI-H1975; first compound 0.253 µM", "result": 0.817}, {"measurement": "relative viability", "setting": "NCI-H1975; first compound 0.8 µM", "result": 0.661}, {"measurement": "relative viability", "setting": "NCI-H1975; first compound 2.53 µM", "result": 0.79}, {"measurement": "relative viability", "setting": "NCI-H1975; first compound 8 µM", "result": 0.595}, {"measurement": "relative viability", "setting": "NCI-H727; first compound 0.253 µM", "result": 0.523}, {"measurement": "relative viability", "setting": "NCI-H727; first compound 0.8 µM", "result": 0.446}, {"measurement": "relative viability", "setting": "NCI-H727; first compound 2.53 µM", "result": 0.609}, {"measurement": "relative viability", "setting": "NCI-H727; first compound 8 µM", "result": 0.562}, {"measurement": "relative viability", "setting": "NCI-H1793; first compound 0.253 µM", "result": 0.359}, {"measurement": "relative viability", "setting": "NCI-H1793; first compound 2.53 µM", "result": 0.319}, {"measurement": "relative viability", "setting": "NCI-H1793; first compound 8 µM", "result": 0.244}, {"measurement": "relative viability", "setting": "NCI-H460; first compound 0.253 µM", "result": 0.643}, {"measurement": "relative viability", "setting": "NCI-H460; first compound 0.8 µM", "result": 0.679}, {"measurement": "relative viability", "setting": "NCI-H460; first compound 2.53 µM", "result": 1.01}, {"measurement": "relative viability", "setting": "NCI-H460; first compound 8 µM", "result": 0.709}, {"measurement": "relative viability", "setting": "NCI-H650; first compound 0.253 µM", "result": 0.528}, {"measurement": "relative viability", "setting": "NCI-H650; first compound 2.53 µM", "result": 0.577}, {"measurement": "relative viability", "setting": "NCI-H650; first compound 8 µM", "result": 0.472}, {"measurement": "relative viability", "setting": "BEN; first compound 0.253 µM", "result": 0.331}, {"measurement": "relative viability", "setting": "BEN; first compound 0.8 µM", "result": 0.295}, {"measurement": "relative viability", "setting": "BEN; first compound 2.53 µM", "result": 0.316}, {"measurement": "relative viability", "setting": "BEN; first compound 8 µM", "result": 0.3}, {"measurement": "relative viability", "setting": "LXF-289; first compound 0.253 µM", "result": 0.832}, {"measurement": "relative viability", "setting": "LXF-289; first compound 0.8 µM", "result": 0.823}, {"measurement": "relative viability", "setting": "LXF-289; first compound 2.53 µM", "result": 0.871}, {"measurement": "relative viability", "setting": "LXF-289; first compound 8 µM", "result": 0.772}, {"measurement": "relative viability", "setting": "NCI-H2342; first compound 0.253 µM", "result": 0.67}, {"measurement": "relative viability", "setting": "NCI-H2342; first compound 0.8 µM", "result": 0.572}, {"measurement": "relative viability", "setting": "NCI-H2342; first compound 2.53 µM", "result": 0.57}, {"measurement": "relative viability", "setting": "NCI-H2342; first compound 8 µM", "result": 0.626}, {"measurement": "relative viability", "setting": "COR-L 105; first compound 0.253 µM", "result": 0.715}, {"measurement": "relative viability", "setting": "COR-L 105; first compound 0.8 µM", "result": 0.632}, {"measurement": "relative viability", "setting": "COR-L 105; first compound 2.53 µM", "result": 0.697}, {"measurement": "relative viability", "setting": "COR-L 105; first compound 8 µM", "result": 0.821}, {"measurement": "relative viability", "setting": "NCI-H2347; first compound 0.253 µM", "result": 0.44}, {"measurement": "relative viability", "setting": "NCI-H2347; first compound 0.8 µM", "result": 0.47}, {"measurement": "relative viability", "setting": "NCI-H2347; first compound 2.53 µM", "result": 0.378}, {"measurement": "relative viability", "setting": "NCI-H2347; first compound 8 µM", "result": 0.454}, {"measurement": "relative viability", "setting": "NCI-H358; first compound 0.253 µM", "result": 0.717}, {"measurement": "relative viability", "setting": "NCI-H358; first compound 0.8 µM", "result": 0.815}, {"measurement": "relative viability", "setting": "NCI-H358; first compound 2.53 µM", "result": 0.925}, {"measurement": "relative viability", "setting": "NCI-H358; first compound 8 µM", "result": 0.855}, {"measurement": "relative viability", "setting": "NCI-H1650; first compound 0.8 µM", "result": 0.546}, {"measurement": "relative viability", "setting": "NCI-H1650; first compound 2.53 µM", "result": 0.722}, {"measurement": "relative viability", "setting": "NCI-H1650; first compound 8 µM", "result": 0.656}, {"measurement": "relative viability", "setting": "HOP-62; first compound 0.253 µM", "result": 0.685}, {"measurement": "relative viability", "setting": "HOP-62; first compound 0.8 µM", "result": 0.802}, {"measurement": "relative viability", "setting": "HOP-62; first compound 2.53 µM", "result": 0.998}, {"measurement": "relative viability", "setting": "HOP-62; first compound 8 µM", "result": 0.789}, {"measurement": "relative viability", "setting": "NCI-H1993; first compound 0.253 µM", "result": 0.401}, {"measurement": "relative viability", "setting": "NCI-H1993; first compound 0.8 µM", "result": 0.572}, {"measurement": "relative viability", "setting": "NCI-H1993; first compound 2.53 µM", "result": 0.593}, {"measurement": "relative viability", "setting": "NCI-H1993; first compound 8 µM", "result": 0.607}, {"measurement": "relative viability", "setting": "NCI-H1666; first compound 0.253 µM", "result": 0.822}, {"measurement": "relative viability", "setting": "NCI-H1666; first compound 2.53 µM", "result": 0.927}, {"measurement": "relative viability", "setting": "NCI-H1666; first compound 8 µM", "result": 0.894}]}
